Assay in all cases: growth of human tumour cells (NCI), 48 h
Assay [1] relates to A498 renal.
The test system of assay [2] is COLO 205 colon.
Assay [3] has as its system HOP-92 NSCLC.
Assay [4] relates to KM12 colon.
Assay [5] relates to NCI-H23 lung.
Assay [6] deals with SW-620 colon.
In assay [7] the test system is TK-10 renal.
Assay [8] concerns UO-31 renal.

The text below walks through data of PubChem BioAssay (NCI).

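Five concentrations, 48 hours, 96-well plates. TGI is the concentration that stops growth completely.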

Take `Cc1ccc(N=C2N=C(N3CC(C)OC(C)C3)c3ccccc32)cc1` (stereo unspecified): the TGI was 90.1 µM in assay [1]; greater than 100 µM in assay [2]; 26.5 µM in assay [3]; 62.5 µM in assay [4]; 78.8 µM in assay [5]; greater than 100 µM in assay [6]. Further, the TGI in assay [7] is greater than 100 µM; in assay [8] it was 54.2 µM.

Turning to `Cc1ccc(/C=C/C(=O)c2sc(-n3nc(-c4ccccc4)cc3-c3ccccc3)nc2C)cc1`, the TGI in assay [1], in assay [2], in assay [3], in assay [4], in assay [5] and in assay [6] was greater than 100 µM in each case. For the same molecule, the TGI in assay [7] and in assay [8] was greater than 100 µM each time.

For `O=C(N=c1nc(NC(=O)c2ccccc2)ss1)c1ccccc1`, the TGI in assay [1] is 87.6 µM; in assay [2], 47.3 µM; in assay [4], greater than 100 µM; in assay [5], 92.5 µM; in assay [6], greater than 100 µM; in assay [7], greater than 100 µM. Besides, in assay [8], the TGI was 62.8 µM.

As for `O=C(CC1C(=O)Nc2ccccc2S1(=O)=O)Nc1ccc(Cl)cc1` (stereo unspecified), the TGI in assay [1] is greater than 100 µM; in assay [3] it was 44.5 µM; in assay [5], greater than 100 µM; in assay [6], greater than 100 µM; in assay [7], 54.5 µM; in assay [8] it was 66.9 µM.

As to `N#C/C(=C1\OC(=N)C(c2ccccc2)C1=O)c1ccccc1` (stereo unspecified), the TGI in assay [1] is greater than 100 µM; in assay [2], 44.2 µM; in assay [3], greater than 71.3 µM; in assay [4], greater than 100 µM; in assay [6], 59.1 µM; in assay [7] it was 68.5 µM. This molecule gave a TGI in assay [8] of 42.8 µM.

Regarding `CCOC(=O)c1[nH]c2cc(OC)c(OC)cc2c1CN(C)C`, the TGI in assay [1], in assay [3], in assay [4], in assay [5], in assay [6] and in assay [7] was greater than 100 µM in each case. In assay [8], this molecule returned a TGI greater than 100 µM.

As to `CCc1cc2c(O)c(c1)Cc1cc(CC)cc(c1O)Cc1cc(CC)cc(c1O)Cc1cc(CC)cc(c1O)Cc1cc(CC)cc(c1O)Cc1cc(CC)cc(c1O)Cc1cc(CC)cc(c1O)C2`, the TGI in assay [2], in assay [3], in assay [4], in assay [5], in assay [6] and in assay [7] was greater than 100 µM in each case. In assay [8], this molecule yielded a TGI greater than 100 µM.

Turning to `CCCCNC(=S)OCCC(C)CCCC(C)C` (stereo unspecified), the TGI in assay [1], in assay [4], in assay [5], in assay [6], in assay [7] and in assay [8] was greater than 100 µM throughout.

`CC1=CP(=O)(c2ccccc2)C=C(C)C1=C(Cl)Cl` (stereo unspecified): the TGI in assay [2] is 16.4 µM; in assay [4] it was 14.9 µM; in assay [5] it was 34.9 µM; in assay [6] it was 16.6 µM; in assay [7], 43.3 µM.

As to `CC1C=CC(C(N)C(=O)O)O1` (stereo unspecified), the TGI in assay [1], in assay [2], in assay [3], in assay [4], in assay [5] and in assay [6] was greater than 100 µM throughout. For the same molecule, in assay [8], the TGI was greater than 100 µM.

For the molecule `CCOC(=N)CC(=O)Nc1ccccc1`, the TGI in assay [1] was greater than 46.4 µM; in assay [2] it was greater than 46.4 µM; in assay [4], greater than 46.4 µM; in assay [5], greater than 46.4 µM; in assay [6] it was greater than 67.6 µM; in assay [7] it was greater than 46.4 µM. Also, in assay [8], the TGI is greater than 46.4 µM.

As to `COc1cc(/C=C(\NC(=O)c2ccccc2)c2nc3ncncc3[nH]2)cc(OC)c1OC`, the TGI in assay [2], in assay [3], in assay [4], in assay [5], in assay [6] and in assay [7] was greater than 100 µM in each case. The TGI in assay [8] was greater than 100 µM.

On to `CC(C)COC1Sc2ccccc2S1`, for which the TGI stood at 89.2 µM in assay [2]; 28.1 µM in assay [3]; 53.4 µM in assay [5]; 88.3 µM in assay [6]; 43 µM in assay [7]; 29.4 µM in assay [8].

In the case of `COc1ccc(/C=C/C(=O)c2c(-c3ccccc3)nn(C)c(=O)c2N2CCOCC2)cc1`, the TGI in assay [1], in assay [2], in assay [3], in assay [5], in assay [6] and in assay [7] was greater than 100 µM throughout. The molecule further had a TGI in assay [8] greater than 100 µM.

With `c1ccc2c(c1)Cc1c(Cc3csc4ccccc34)ccc3cccc-2c13`, the TGI in assay [2], in assay [3], in assay [4], in assay [5], in assay [6] and in assay [8] was greater than 100 µM throughout.
